In general, pIC50 refers to the IC50 on a negative log10 scale, so that one unit is a factor of ten.

This passage reports IC50 results from patent US11878966B2, “Substituted 4-benzyl and 4-benzoyl piperidine derivates” (89BIO LTD, priority 2015, dated 2024).

In the assay the target is T1, recombinant human baculovirus-expressed GST-tagged FASN (Homo sapiens, UniProt P49327).
T1 construct: GST; host or cells: baculovirus expression system (insect cells implied)
Kind of assay: FASN enzyme activity assay: fluorescence-based detection of CoA with CPM. Type of assay: biochemical. To be noted: 5 nM FASN, 150 μM NADPH, 10 μM acetyl-CoA, 25 μM malonyl-CoA, 90 minutes incubation. From the text:
FASN Enzyme activity may be determined by detecting coenzyme A (CoA), a product of FASN-catalyzed synthesis of palmitate from acetyl-CoA and malonyl-CoA with NADPH as a cofactor. The assay is fluorescence-based and measures the interaction of free CoA with 7-diethylamino-3-(4′-malemimidylphenyl)-4-methylcoumarin (CPM; Life Technologies, CA) as described in Chung et al (2008). The coumarin derivative CPM contains a thiol-reactive maleimide that becomes fluorescent upon interaction with the sulfhydryl group of CoA.
For the example compounds described herein, the reaction was performed in 384-well low volume non-binding platews (Corning, NY) using recombinant human baculovirus-expressed GST-tagged FASN. The 20-μL assay mixture contained 50 mM HEPES (pH 7.5), 5 nM FASN, 150 μM NADPH (Sigma, St. Louis, MO), 10 μM acetyl-CoA (Sigma), 25 μM malonyl-CoA (Sigma) and test compound [diluted in dimethyl sulfoxide (DMSO); 0.5% DMSO final in assay after 100 nL addition]. See, Chung et al.; “A fluorescence-based thiol quantification assay for ultra-high-throughput screening for inhibitors of coenzyme A production,” Assay Drug Dev Tech 2008; 6:361-374.
The reaction was initiated by adding malonyl-CoA, followed by incubation for 90 minutes at […]. A stock solution of the CPM reagent was prepared in DMSO al 66 μM and stored at […]. To detect CoA produced in the FASN reaction, the CPM stock was diluted to 50 μM in 70% ethanol and added at 4 μL/well to the assay place. The reaction mixture was then incubated for 30 minutes. Fluorescence was measured using the EnVision™ 2102 multi-label plate reader (PerkinElmer, Waltham, MA) utilizing a general dual mirror, a 390 nm excitation filter and a 530 nm emission filter. Data analysis was performed using ActivityBase (IDBS, Guilford, UK). IC50 values were calculated by plotting the percent inhibition versus log 10 of the concentration of the compound, and fitting to the nonlinear regression sigmoidal dose-response (variable slope) equation in XLFit (IDBS).

pIC50: −log10 of the molar value.

T1 sequence (P49327 whole entry): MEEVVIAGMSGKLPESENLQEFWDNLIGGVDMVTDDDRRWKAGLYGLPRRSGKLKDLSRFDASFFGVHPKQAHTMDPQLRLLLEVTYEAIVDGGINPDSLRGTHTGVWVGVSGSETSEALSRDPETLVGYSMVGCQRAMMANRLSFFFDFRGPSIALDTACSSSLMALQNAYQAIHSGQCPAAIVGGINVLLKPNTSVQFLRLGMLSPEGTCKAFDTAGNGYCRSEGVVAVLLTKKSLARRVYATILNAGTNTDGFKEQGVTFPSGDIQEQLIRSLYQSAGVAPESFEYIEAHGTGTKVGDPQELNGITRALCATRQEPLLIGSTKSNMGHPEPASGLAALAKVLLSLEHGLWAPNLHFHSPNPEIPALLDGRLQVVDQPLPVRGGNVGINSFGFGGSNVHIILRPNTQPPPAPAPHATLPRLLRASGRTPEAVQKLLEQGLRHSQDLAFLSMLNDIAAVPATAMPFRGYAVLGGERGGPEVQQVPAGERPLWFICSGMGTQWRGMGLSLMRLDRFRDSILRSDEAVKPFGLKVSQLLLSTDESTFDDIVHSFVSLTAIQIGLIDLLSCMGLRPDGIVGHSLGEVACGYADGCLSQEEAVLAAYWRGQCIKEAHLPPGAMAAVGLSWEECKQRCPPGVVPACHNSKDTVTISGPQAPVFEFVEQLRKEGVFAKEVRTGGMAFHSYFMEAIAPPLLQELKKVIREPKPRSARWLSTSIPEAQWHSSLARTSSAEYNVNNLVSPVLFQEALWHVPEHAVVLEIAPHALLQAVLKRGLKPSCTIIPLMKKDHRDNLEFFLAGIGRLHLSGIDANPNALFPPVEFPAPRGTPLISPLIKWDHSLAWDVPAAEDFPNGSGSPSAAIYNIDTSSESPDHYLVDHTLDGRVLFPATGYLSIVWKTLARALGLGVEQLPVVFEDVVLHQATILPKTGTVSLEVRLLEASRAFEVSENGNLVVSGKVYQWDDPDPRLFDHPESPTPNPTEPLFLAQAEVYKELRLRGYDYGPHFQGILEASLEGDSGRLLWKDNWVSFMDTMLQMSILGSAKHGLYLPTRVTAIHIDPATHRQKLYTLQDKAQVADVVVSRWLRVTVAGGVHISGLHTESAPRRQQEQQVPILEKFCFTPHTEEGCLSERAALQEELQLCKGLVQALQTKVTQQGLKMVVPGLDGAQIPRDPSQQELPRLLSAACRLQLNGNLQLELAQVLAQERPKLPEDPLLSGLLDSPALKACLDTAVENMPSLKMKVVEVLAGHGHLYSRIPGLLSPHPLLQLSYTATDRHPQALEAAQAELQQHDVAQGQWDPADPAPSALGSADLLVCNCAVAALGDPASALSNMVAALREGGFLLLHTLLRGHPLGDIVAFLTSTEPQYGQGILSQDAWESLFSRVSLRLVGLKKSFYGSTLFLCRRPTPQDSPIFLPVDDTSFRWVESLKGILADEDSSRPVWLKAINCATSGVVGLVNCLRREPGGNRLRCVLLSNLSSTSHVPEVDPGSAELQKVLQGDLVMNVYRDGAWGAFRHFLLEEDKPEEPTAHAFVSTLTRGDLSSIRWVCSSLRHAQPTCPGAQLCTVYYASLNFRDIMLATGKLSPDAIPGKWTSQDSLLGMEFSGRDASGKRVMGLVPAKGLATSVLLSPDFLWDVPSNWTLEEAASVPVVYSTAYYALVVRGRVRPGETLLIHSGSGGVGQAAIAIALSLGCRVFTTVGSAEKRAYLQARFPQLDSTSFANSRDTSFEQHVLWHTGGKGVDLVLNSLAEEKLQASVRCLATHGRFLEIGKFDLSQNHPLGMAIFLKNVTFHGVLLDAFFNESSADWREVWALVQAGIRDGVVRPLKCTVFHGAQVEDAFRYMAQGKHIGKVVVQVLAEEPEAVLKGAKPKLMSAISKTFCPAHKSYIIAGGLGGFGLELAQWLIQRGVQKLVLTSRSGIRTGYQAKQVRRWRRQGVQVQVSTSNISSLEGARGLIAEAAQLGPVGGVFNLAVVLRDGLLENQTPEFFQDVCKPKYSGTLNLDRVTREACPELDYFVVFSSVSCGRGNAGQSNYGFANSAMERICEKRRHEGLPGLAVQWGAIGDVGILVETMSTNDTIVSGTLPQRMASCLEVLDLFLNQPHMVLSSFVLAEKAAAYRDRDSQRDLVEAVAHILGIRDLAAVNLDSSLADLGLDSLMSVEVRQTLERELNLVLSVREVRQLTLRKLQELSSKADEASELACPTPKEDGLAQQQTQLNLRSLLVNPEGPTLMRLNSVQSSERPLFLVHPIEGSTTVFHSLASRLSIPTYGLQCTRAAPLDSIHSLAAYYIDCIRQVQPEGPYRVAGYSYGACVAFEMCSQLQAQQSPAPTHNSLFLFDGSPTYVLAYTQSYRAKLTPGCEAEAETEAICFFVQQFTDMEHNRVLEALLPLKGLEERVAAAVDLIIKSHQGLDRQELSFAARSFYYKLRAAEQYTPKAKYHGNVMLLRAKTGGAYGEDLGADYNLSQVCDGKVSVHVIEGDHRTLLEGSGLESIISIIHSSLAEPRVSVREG

Regarding `CCC(=O)N1CCC(C)(C(=O)c2ccc(-c3cnc4ccccc4c3)cc2)CC1` [Example 56, 1-[4-Methyl-4-(4-quinolin-3-yl-benzoyl)-piperidin-1-yl]-propan-1-one], the negative-log IC50 (pIC50) was 6.00 to 7.00.

As to `CC(c1ccc(-c2cnc3ccccc3c2)cc1)C1CCN(C(=O)OC(C)(C)C)CC1` (centres unmarked) [Example 57, 4-[1-(4-quinolin-3-yl-phenyl)-ethyl]-piperidine-1-carboxylic Acid t-Butyl Ester], the pIC50 is 5.00 to 6.00.

Consider `CC(c1ccc(-c2cnc3ccccc3c2)cc1)C1CCN(C(=O)C2CC2)CC1` (centres unmarked) [Example 58, Cyclopropyl-{4-[1-(4-quinolin-3-yl-phenyl)-ethyl]-piperidin-1-yl}-methanone], for which the pIC50 was 7.00 to 9.00.

In the case of `CCC(=O)N1CCC(C)(Cc2ccc(-c3cnc4ccccc4c3)cc2)CC1` [Example 59, 1-[4-Methyl-4-(4-quinolin-3-yl-benzyl)-piperidin-1-yl]-propan-1-one], the negative logarithm of the IC50 (pIC50) was 6.00 to 7.00.

For `CC(c1ccc(-c2cnc3ccccc3c2)cc1)C1CCN(C=O)CC1` (centres unmarked) [Example 60, 4-[1-(4-Quinolin-3-yl-phenyl)-ethyl]-piperidine-1-carbaldehyde], the negative-log IC50 (pIC50) is 5.00 to 6.00.

On to `CCC(=O)N1CCC(C(c2ccc(-c3cnc4ccccc4c3)cc2)C(C)C)CC1` (centres unmarked) [Example 61, 1-{4-[2-Methyl-1-(4-quinolin-3-yl-phenyl)-propyl]-piperidin-1-yl}-propan-1-one], for which the negative logarithm of the IC50 (pIC50) is 6.00 to 7.00.

As to `CCC(=O)N1CCC(C(C)c2ccc(-c3ccc4cccnc4c3C)cc2)CC1` (centres unmarked) [Example 62, 1-(4-{1-[4-(8-methylquinolin-7-yl)-phenyl]-ethyl}-piperidin-1-yl)-propan-1-one], the pIC50 is 7.00 to 9.00.

For `Cc1c(-c2ccc(C(C)C3CCN(C(=O)C4CC4)CC3)cc2)ccc2cccnc12` (centres unmarked) [Example 63, Cyclopropyl-(4-{1-[4-(8-methylquinolin-7-yl)-phenyl]-ethyl}-piperidin-1-yl)-methanone], the negative logarithm of the IC50 (pIC50) is 7.00 to 9.00.

In the case of `CCC(=O)N1CCC(C(C)c2ccc(-c3ccc4cccnc4c3OC)cc2)CC1` (centres unmarked) [Example 64, 1-(4-{1-[4-(8-Methoxyquinolin-7-yl)-phenyl]-ethyl}-piperidin-1-yl)-propan-1-one], the negative-log IC50 (pIC50) was 7.00 to 9.00.

On to `CCC(=O)N1CCC(C(C)c2ccc(-c3cnc4ccccc4c3C)cc2)CC1` (centres unmarked) [Example 65, 1-(4-{1-[4-(4-Methylquinolin-3-yl)-phenyl]-ethyl}-piperidin-1-yl)-propan-1-one], for which the negative logarithm of the IC50 (pIC50) was 7.00 to 9.00.

`COc1c(-c2ccc(C(C)C3CCN(C(=O)C4CC4)CC3)cc2)ccc2cccnc12` (centres unmarked) [Example 66, Cyclopropyl-(4-{1-[4-(8-methoxyquinolin-7-yl)-phenyl]-ethyl}-piperidin-1-yl)-methanone]: the negative-log IC50 (pIC50) was 7.00 to 9.00.

As to `CCC(=O)N1CCC(C(C)c2ccc(-c3ccc4cccnc4c3Cl)cc2)CC1` (centres unmarked) [Example 72, 1-(4-{1-[4-(8-chloroquinolin-7-yl)-phenyl]-ethyl}-piperidin-1-yl)-propan-1-one], the pIC50 was 7.00 to 9.00.

Take `CC(c1ccc(-c2ccc3cccnc3c2Cl)cc1)C1CCN(C(=O)C2CC2)CC1` (centres unmarked) [Example 73, (4-{1-[4-(8-Chloroquinolin-7-yl)-phenyl]-ethyl}-piperidin-1-yl)-cyclopropylmethanone]: the negative-log IC50 (pIC50) was 7.00 to 9.00.

On to `CCC(=O)N1CCC(C(C)c2ccc(-c3cnc4ccccc4c3Cl)cc2)CC1` (centres unmarked) [Example 75, 1-(4-{1-[4-(4-Chloroquinolin-3-yl)-phenyl]-ethyl}-piperidin-1-yl)-propan-1-one], for which the negative-log IC50 (pIC50) was 7.00 to 9.00.

As to `CC(c1ccc(-c2cnc3ccccc3c2Cl)cc1)C1CCN(C(=O)C2CC2)CC1` (centres unmarked) [Example 76, (4-{1-[4-(4-Chloroquinolin-3-yl)-phenyl]-ethyl}-piperidin-1-yl)-cyclopropylmethanone], the pIC50 is 7.00 to 9.00.

With `Cc1nccc2cc(-c3ccc(C4(C5CCN(C(=O)[C@H]6CCCO6)CC5)CC4)cc3)ccc12` [Example 78, (4-{1-[4-(1-Methylisoquinolin-6-yl)-phenyl]-cyclopropyl}-piperidin-1-yl)-(R)-tetrahydrofuran-2-yl-methanone], the pIC50 is 5.00 to 6.00.

Take `Cc1c(-c2ccc(C3(C4CCN(C(=O)[C@H]5CCCO5)CC4)CC3)cc2)ccc2cccnc12` [Example 79, (4-{1-[4-(8-Methylquinolin-7-yl)-phenyl]-cyclopropyl}-piperidin-1-yl)-(R)-tetrahydrofuran-2-yl-methanone]: the negative-log IC50 (pIC50) is 5.00 to 6.00.

As to `COCCOC(c1ccc(-c2ccc3cccnc3c2C)cc1)C1CCN(C(=O)[C@H]2CCCO2)CC1` (stereo partly drawn) [Example 80, (4-{(2-Methoxyethoxy)-[4-(8-methyl-quinolin-7-yl)-phenyl]-methyl}-piperidin-1-yl)-(R)-tetrahydrofuran-2-yl-methanone], the pIC50 was 7.00 to 9.00.

As for `CCC(=O)N1CCC(C(OCCOC)c2ccc(-c3ccc4cccnc4c3C)cc2)CC1` (centres unmarked) [Example 81, 1-(4-{(2-Methoxyethoxy)-[4-(8-methyl-quinolin-7-yl)-phenyl]-methyl}-piperidin-1-yl)-propan-1-one], the pIC50 was 7.00 to 9.00.

`COCCOC(c1ccc(-c2cnc3ccccc3c2C)cc1)C1CCN(C(=O)[C@H]2CCCO2)CC1` (stereo partly drawn) [Example 83, (4-{(2-Methoxyethoxy)-[4-(4-methyl-quinolin-3-yl)-phenyl]-methyl}-piperidin-1-yl)-(R)-tetrahydrofuran-2-yl-methanone]: the pIC50 was 7.00 to 9.00.

On to `Cc1c(-c2ccc(C(OCCCN3CCOCC3)C3CCN(C(=O)[C@H]4CCCO4)CC3)cc2)ccc2cccnc12` (stereo partly drawn) [Example 84, {4-[[4-(8-Methylquinolin-7-yl)-phenyl]-(3-morpholin-4-yl-propoxy)-methyl]-piperidin-1-yl}-(R)-tetrahydrofuran-2-yl-methanone], for which the pIC50 is 7.00 to 9.00.

Turning to `CCC(=O)N1CCC(C(OCCCN2CCOCC2)c2ccc(-c3ccc4cccnc4c3C)cc2)CC1` (centres unmarked) [Example 85, 1-{4-[[4-(8-Methylquinolin-7-yl)-phenyl]-(3-morpholin-4-yl-propoxy)-methyl]-piperidin-1-yl}-propan-1-one], the pIC50 was 7.00 to 9.00.

With `Cc1nccc2cc(-c3ccc(C(OCCCN4CCOCC4)C4CCN(C(=O)[C@H]5CCCO5)CC4)cc3)ccc12` (stereo partly drawn) [Example 86, {4-[[4-(1-Methylisoquinolin-6-yl)-phenyl]-(3-morpholin-4-yl-propoxy)-methyl]-piperidin-1-yl}-(R)-tetrahydrofuran-2-yl-methanone], the negative logarithm of the IC50 (pIC50) was 6.00 to 7.00.

On to `Cc1c(-c2ccc(C(OCCCN3CCOCC3)C3CCN(C(=O)[C@H]4CCCO4)CC3)cc2)cnc2ccccc12` (some centres unmarked) [Example 87], for which the pIC50 is 7.00 to 9.00.

In the case of `O=C([C@H]1CCCO1)N1CCC(C(OCCN2CCCC2)c2ccc(-c3cnc4ccccc4c3)cc2)CC1` (stereo partly drawn) [Example 88, {4-[(2-Pyrrolidin-1-yl-ethoxy)-(4-quinolin-3-yl-phenyl)-methyl]-piperidin-1-yl}-(R)-tetrahydrofuran-2-yl-methanone], the pIC50 is 6.00 to 7.00.

As to `Cc1c(-c2ccc(C(OCCN3CCCC3)C3CCN(C(=O)[C@H]4CCCO4)CC3)cc2)ccc2cccnc12` (stereo partly drawn) [Example 89, {4-[[4-(8-Methylquinolin-7-yl)-phenyl]-(2-pyrrolidin-1-yl-ethoxy)-methyl]-piperidin-1-yl}-(R)-tetrahydrofuran-2-yl-methanone], the negative-log IC50 (pIC50) is 7.00 to 9.00.
